Experimental data published in US20180064829A1, “FLUORESCENT BISPHOSPHONATE ANALOGS” (University of Southern California, priority 2015, published 2018).

Tests used:
[1] = UV-VIS absorption and fluorescence emission spectra; type: physicochemical; conditions: 0.1M phosphate buffer (1x PBS for 7d5); ± 1 nm error
Procedure: All labeled samples were dissolved in water and diluted with 0.1 M phosphate buffer or 1×PBS (for 7d5). Assuming that the labeled bisphosphonates have the same extinction coefficient (E) as the carboxylic acid of the free fluorescent label, the final concentrations for all labeled products were calculated from UV-VIS absorption spectra at λ=493 nm (ε=73000 M^−1 cm^−1 at pH 7.2) for FAM conjugates (7a1-7a3, 7b1, 7c1, 7d1-7d2, 7e1-7e2, 7f1-7f2), λ=567.5 nm (ε=114850 M^−1cm^−1 at pH 7.5) for RhR-X conjugates (7a4, 7b2, 7c2), λ=580 nm (c=72000 M^−1cm^−1 at pH 8.0) for ROX conjugates (7a5, 7b3), λ=648 nm (ε=240000 M^−1cm^−1 at pH 7.2) for AF647 conjugates (7a6, 7b4, 7d3), λ=774 nm (ε=240000 M^−1cm^−1 at pH 7.4) for 800CW conjugates (7d4), λ=644 nm (ε=271000 M^−1cm^−1 at pH 7.4, 1×PBS) for Sulfo-Cy5 conjugates (7d5).
Emission spectra for FAM and RhR-X conjugates were recorded using an excitation wavelength of 490 nm or 520 nm, respectively. Emission spectra for AF647 conjugates and Sulfo-Cy5 conjugates were recorded using an excitation wavelength of 600 nm. Emission spectra of 5(6)-ROX conjugates were recorded using an excitation wavelength of 575 nm. Emission spectra of IRDye CW800 conjugate was recorded using an excitation wavelength of 750 nm. The set-up of excitation slit, emission slit, integration time and increment were determined to get optimal spectra for each compound respectively, depending on the sample concentration and spectrometer used.

[2] = Hydroxyapatite (HAP) column chromatography binding assay; conditions: pH 6.8, phosphate gradient 1 to 1000 mM; FIG. 3
Procedure: The fast performance liquid chromatography (FPLC) system consisted of a Waters 650E advanced protein purification system (Millipore Corp., Waters chromatography division, Milford, Mass.), a 600E system controller and a 484 tunable absorbance detector for UV absorbance assessment. Ceramic hydroxyapatite [HAP, […], Macro-Prep® Ceramic Hydroxyapatite Type II 20 μm 100 g, Bio-Rad Laboratories, Inc. Hercules, Calif.] was equilibrated with 1 mM phosphate buffer (pH 6.8) and packed in a 0.66 cm (diameter)×6.5 cm (length) glass column (Omnifit, Bio-chem Valve™ inc., Cambridge, U.K.), which was attached to the Waters 650E advanced protein purification system. Each sample was prepared in 1 mM potassium phosphate buffer, and 100 μL of 1 mM (0.1 μmol) sample was injected into the FPLC system. As a consequence, the compounds were absorbed and subsequently eluted at a flow rate of 2 ml/min by using a linear concentration gradient of phosphate from 1 to 1000 mM at pH 6.8. Fractions of each sample were collected in 80 tubes using an automated fraction collector (Gilson, France) and then used for subsequent ultraviolet (SPECTRAmax PLUS 384, Molecular Devices, CA) or fluorescence spectrometry detection (WALLAC VICTOR™, 1420 MULTILABEL COUNTER, Perkin Elmer, USA). […] The elution profile for each sample was determined in triplicate for statistical analysis (Prism, GraphPad Software, USA). […]

[3] = test system: unprenylated Rap1A (uRap1A); assay: Prenylation assay: Western blot for unprenylated Rap1A in J774.2 macrophages; type: cell-based, mouse; conditions: 10 or 100 μM, 24 h, FIG. 5A-C
Procedure: To determine the effect of fluorescent BP probes on protein prenylation, J774.2 mouse macrophages were plated out at 2×10^5 cells/mL in 24-well plates and left to adhere overnight. Cells were then treated with 10 or 100 μM of fluorescent analogues of RIS, dRIS, and ZOL, the respective native BP, or vehicle, for 24 h. Cells were lysed in radioimmunoprecipitation buffer, and proteins were separated by sodium dodecyl sulfate polyacrylamide gel electrophoresis and transferred to polyvinyl difluoride membranes by western blotting. Membranes were then incubated with antibodies to the unprenylated form of Rap1A (uRap1A) and the housekeeping protein β-actin, which were detected by incubation with fluorescently-labeled secondary antibodies and scanning of membranes on a LI-COR Infrared Imager. Results shown are representative of 2 independent experiments. The ratio between abundance of unprenylated RaplA and β-actin is indicated for each sample below the blots in FIG. 5.

[4] = test system: J774.2 macrophages; assay: J774.2 cell viability assay (AlamarBlue); type: cell-based, mouse; conditions: J774.2 macrophages, 10, 100 or 500 μM, 48 h; FIG. 5D-F
Procedure: To determine the effect of fluorescent BP analogues on cell viability, J774.2 mouse macrophages were plated at 2×10^5 cells/mL in 96-well plates and left to adhere overnight. Cells were then treated with 10, 100 or 500 μM of fluorescent analogues of RIS, dRIS, and ZOL, the respective native BP, or vehicle, for 48 h. At the end of the incubation period, AlamarBlue reagent was added to each well and incubation continued for a further 3 h. Fluorescence was detected on a plate reader, and expressed as percent of vehicle control. Results are shown as mean±SD of ≧2 independent experiments, performed at least in duplicate.

[5] = pH 7.0, 0.1M phosphate buffer; assumed the same as the corresponding fluorescent dye; cited from earlier work

Compound: CC1(C)C(C=CC=CC=C2N(CCCS(=O)(=O)O)c3ccc(S(=O)(=O)O)cc3C2(C)CCCCCC(=O)NCC(O)C[n+]2cccc(CC(O)(P(=O)(O)O)P(=O)(O)O)c2)=[N+](CCCS(=O)(=O)O)c2ccc(S(=O)(=O)O)cc21 (centres unmarked) [AF647-RIS, 2-(5-(3-(6-((2-hydroxy-3-(3-(2-hydroxy-2,2-diphosphonoethyl)pyridin-1-ium-1-yl)propyl)amino)-6-oxohexyl)-3-methyl-5-sulfo-1-(3-sulfopropyl)indolin-2-ylidene)penta-1,3-dien-1-yl)-3,3-dimethyl-5-sulfo-1-(3-sulfopropyl)-3H-indol-1-ium]
- Maximum absorption wavelength (λmax (abs), nm) [1]: 648 nm
- Maximum emission wavelength (λmax (em), nm) [1]: 666 nm
- HAP binding affinity (retention time on HAP column, normalized to RIS) [2]: largest relative decrease of HAP affinity compared to other fluorescent RIS conjugates, but still retains strong absolute binding affinity
- accumulation of unprenylated Rap1A (anti-prenylation activity) [3]: did not show accumulation of unprenylated Rap1A
- viable cell number [4]: modest decreases in viable cell number at high concentrations
- Extinction coefficient [5]: 240,000 (pH 7.0) M^−1cm^−1

Compound: CC1(C)C(/C=C/C2=C(Oc3ccc(S(=O)(=O)O)cc3)C(=C/C=C3/N(CCCCS(=O)(=O)[O-])c4ccc(S(=O)(=O)[O-])cc4C3(C)C)/CCC2)=[N+](CCCCCC(=O)NCC(O)C[n+]2ccn(CC(O)(P(=O)(O)O)P(=O)(O)O)c2)c2ccc(S(=O)(=O)O)cc21 (centres unmarked) [Compound 800CW-ZOL, (E)-2-((E)-2-(3-((E)-2-(1-(6-((2-hydroxy-3-(1-(2-hydroxy-2,2-diphosphonoethyl)-1H-imidazol-3-ium-3-yl)propyl)amino)-6-oxohexyl)-3,3-dimethyl-5-sulfo-3H-indol-1-ium-2-yl)vinyl)-2-(4-sulfophenoxy)cyclohex-2-en-1-ylidene)ethylidene)-3,3-dimethyl-1-(4-sulfonatobutyl)indoline-5-sulfonate]
- Maximum absorption wavelength (λmax (abs), nm) [1]: 774 nm
- Maximum emission wavelength (λmax (em), nm) [1]: 789 nm
- accumulation of unprenylated Rap1A (anti-prenylation activity) [3]: did not show accumulation of unprenylated Rap1A
- viable cell number [4]: modest decreases in viable cell number at high concentrations
- Extinction coefficient [5]: 240,000 (pH 7.0) M^−1cm^−1
